Test results taken from publication PMC8518382, “Identification of a Bromodomain‐like Region in 15‐Lipoxygenase‐1 Explains Its Nuclear Localization” (Angewandte Chemie (International Ed. in English), 2021).
Several values for one entry are separate records, joined by “and”; a condition that tells them apart may be missing. Identical values can stand only once.

Legend:
[1] = target: T1, 12-LOX (Homo sapiens, UniProt P18054); experiment: ABP-based ELISA assay with A549 cell lysate, 12-LOX; assay type: biochemical
T1 construct: the endogenous LOXs were captured on an anti‐LOX antibody precoated 96‐well plate; endogenous in cells; host or cells: A549 cell lysate
T1 sequence (P18054 1-663): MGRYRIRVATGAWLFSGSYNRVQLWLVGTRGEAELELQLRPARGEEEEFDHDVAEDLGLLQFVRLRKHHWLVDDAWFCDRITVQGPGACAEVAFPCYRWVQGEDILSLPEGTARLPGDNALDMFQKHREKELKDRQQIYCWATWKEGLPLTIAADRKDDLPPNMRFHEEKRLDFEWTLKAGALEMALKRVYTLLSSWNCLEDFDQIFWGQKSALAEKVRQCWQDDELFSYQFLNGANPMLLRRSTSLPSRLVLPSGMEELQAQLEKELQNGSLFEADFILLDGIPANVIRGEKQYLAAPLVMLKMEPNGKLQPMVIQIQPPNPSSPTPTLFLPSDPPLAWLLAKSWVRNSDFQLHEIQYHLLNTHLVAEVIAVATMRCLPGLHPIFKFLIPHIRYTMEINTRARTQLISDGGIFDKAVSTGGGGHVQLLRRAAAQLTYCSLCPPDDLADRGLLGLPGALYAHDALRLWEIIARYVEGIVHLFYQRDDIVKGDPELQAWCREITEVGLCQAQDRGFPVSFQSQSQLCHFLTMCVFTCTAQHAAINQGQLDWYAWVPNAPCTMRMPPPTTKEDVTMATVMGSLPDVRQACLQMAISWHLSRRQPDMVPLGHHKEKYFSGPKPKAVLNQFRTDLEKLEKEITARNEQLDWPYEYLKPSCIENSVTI
Description: (§1) A549 cell lysate was treated with a serial dilution of the respective inhibitor. Subsequently, samples were labeled by treatment with 1 μM of Labelox B for 1 min. […] Data are mean±s.d., n≥3 independent experiments. […]
(§2) 1.6. Immunoblotting Analysis […]
(§3) 1.7. ABPP-based LOX inhibitor specificity validation
(§4) A549 cells were lysed by RIPA buffer supplemented with 1x PIC. After sonication and centrifugation, the supernatant was collected, and the protein concentration was determined by a Pierce BCA Protein Assay Kit (Thermo Fisher Scientific, USA). The lysates were then diluted with PBS to 300 ng/µl and stored in -20°C. To label endogenous LOXs with Labelox B under the competition condition, 180 µl diluted lysates were incubated with 200 µl different LOX inhibitor solution (in PBS) with desired concentrations for 18 min to inhibit LOXs activity. Later, 20 µl of a 20 µM Labelox B (in PBS) was added and incubated shortly for 2 min, followed by adding 50 µl of a 0.5 M EDTA to stop the labeling reaction. The reaction mixture was 450 µl in total. Inhibitors and Labelox B were absent in positive and […]
(§5) negative control, respectively. To detect the competition labeling of Labelox B among different LOXs, a high-binding 96-well plate (Greiner, #M4561) was coated with 5-LOX (#ab169755, Abcam), 12-LOX […]
(§6) (1:500 dilution in PBS) for overnight at 4°C. After washing triply with 0.05%PBST, the plate was blocked with 2% (w/v) BSA in PBST. Subsequently, 100 µl of each reaction mixture was added to the LOX-antibody-coated wells. There are four LOX antibodies used for coating. Therefore, in total, 400 µl mixture is needed for each reaction. After one hour of incubation, LOXs were pulled down by antibodies accordingly. Next, 100 µl of HRP-conjugated streptavidin (1:2000 dilution in PBS, Thermo Fisher Scientific, USA) was added to each well to detect the D04 labeled LOXs among precipitated LOXs. After washing with PBST, 100 µl of mixed HRP substrate reagent (R&D Systems, Minneapolis, USA) was added, and the colorizing reaction was stopped by adding 100 µl of 1M sulfuric acid. The absorbance at […]

[2] = target: T2, 15-LOX-2 (Homo sapiens, UniProt O15296); experiment: ABP-based ELISA assay with A549 cell lysate, 15-LOX-2; assay type: biochemical
T2 construct: endogenous in cells; host or cells: A549 cell lysate
T2 sequence (O15296 1-676): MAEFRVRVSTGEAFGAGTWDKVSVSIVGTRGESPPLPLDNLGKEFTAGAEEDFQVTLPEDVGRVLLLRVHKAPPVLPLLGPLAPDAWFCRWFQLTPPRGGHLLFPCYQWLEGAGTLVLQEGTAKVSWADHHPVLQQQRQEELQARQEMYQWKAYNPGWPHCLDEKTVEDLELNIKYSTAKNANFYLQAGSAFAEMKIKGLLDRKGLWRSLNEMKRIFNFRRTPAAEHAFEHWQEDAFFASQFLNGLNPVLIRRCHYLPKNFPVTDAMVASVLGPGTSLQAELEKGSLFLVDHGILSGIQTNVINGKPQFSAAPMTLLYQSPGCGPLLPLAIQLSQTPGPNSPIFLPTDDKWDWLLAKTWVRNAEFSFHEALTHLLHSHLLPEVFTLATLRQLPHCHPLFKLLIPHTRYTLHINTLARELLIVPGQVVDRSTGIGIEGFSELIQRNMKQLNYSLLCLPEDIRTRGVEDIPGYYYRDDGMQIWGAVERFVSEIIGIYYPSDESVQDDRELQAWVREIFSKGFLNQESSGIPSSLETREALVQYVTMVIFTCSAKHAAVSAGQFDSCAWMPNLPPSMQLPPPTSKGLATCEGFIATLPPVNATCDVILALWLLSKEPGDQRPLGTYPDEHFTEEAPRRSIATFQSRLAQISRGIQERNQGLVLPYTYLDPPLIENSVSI
Description: as §1, §2, §3, §4
(1 picture or pasted object on this page, not shown here) […]
as §5
as §6, with “After washing with PBST, 100 µl of mixed HRP substrate reagent (R&D Systems, Minneapolis, USA) was added, and the colorizing reaction was stopped by adding 100 µl of 1M sulfuric acid.” left out

Structure (SMILES)	HillSlope Value [1]	IC50 ([1]; 1 μM Labelox B)	HillSlope Value [2]	IC50 ([2]; 1 μM Labelox B)
c1ccc2c(c1)SCc1c-2[nH]c2ccccc12 [PD146176]	-0.98	~17 µM and 19.1 µM	-0.88	> 100 µM and 123 µM
O=c1cc(-c2ccccc2)oc2cc(O)c(O)c(O)c12 [Baicalein]	-0.41	–	-0.34	–
